pEC50: −log10 of the molar value. Where a SMILES comes first, the peptide text is derived from it. Bridges are numbered along the chain shown (N, C = ends). [ ]: non-standard residue; d: D form. Tyr(3-F) = N[C@@H](Cc1ccc(O)c(F)c1)C(=O)O; Tyr(3-OMe) = COc1cc(C[C@H](N)C(=O)O)ccc1O; Phe(4-NH2) = Nc1ccc(C[C@H](N)C(=O)O)cc1; Nle = CCCC[C@H](N)C(=O)O
Tests used:
[1] = test system: guinea pigs; assay: In vivo bronchodilator activity by tracheal instillation against histamine challenge; parameters: species or system guinea pig; settings: anesthetized male guinea pigs, inhibition of histamine (i.v.)-induced rise in tracheal pressure
In short: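 Urethane-anaesthetised male Hartley guinea pigs (400-600 g) received compound in water by intratracheal instillation, then were paralysed, ventilated and challenged with histamine […] i.v. Tracheal pressure change gave % inhibition (≥3 animals/group); ED50 from log dose-response; duration as time until inhibition fell to 40%.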

[2] = test system: guinea pig tracheal smooth muscle; assay: Tracheal relaxant activity of VIP analogs on isolated guinea pig tracheal rings; type: cell-based; settings: cumulative concentration response, relaxation as % of maximum response to VIP (10^-6 M=100%), three tissues pooled, linear regression
In short: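 Male guinea pig tracheal rings under 1.5 g resting tension in Krebs at 37° C, 95% O2/5% CO2, isometric tension. Cumulative concentration-response curves; relaxation as % of response to 10^-6 M VIP added at end; three tissues pooled, EC50 by linear regression.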

SMILES: CCCC[C@H](NC(=O)[C@H](CCC(N)=O)NC(=O)[C@H](CCCCN)NC(=O)[C@H](CCCNC(=N)N)NC(=O)[C@H](CC(C)C)NC(=O)[C@H](CCCCN)NC(=O)[C@@H](NC(=O)[C@H](Cc1ccc(O)cc1)NC(=O)[C@H](CC(N)=O)NC(=O)[C@H](CCC(=O)O)NC(=O)[C@@H](NC(=O)[C@H](Cc1ccccc1)NC(=O)[C@@H](NC(=O)[C@H](C)NC(=O)[C@H](CC(=O)O)NC(=O)[C@H](C)NC(=O)[C@H](Cc1c[nH]cn1)NC(C)=O)C(C)C)[C@@H](C)O)[C@@H](C)O)C(=O)N[C@@H](C)C(=O)N[C@@H](C)C(=O)N[C@@H](CCCCN)C(=O)N[C@H]1CCCCNC(=O)C[C@@H](C(=O)N[C@@H](CC(C)C)C(=O)N[C@@H](CCCCN)C(=O)N[C@@H](CCCCN)C(N)=O)NC(=O)[C@H](CC(N)=O)NC(=O)[C@H](CC(C)C)NC(=O)[C@H](Cc2ccc(O)cc2)NC1=O [SEQ ID NO:53, Ac-[Ala^2,Glu^8,Lys^12,Nle^17,Ala^19,Asp^25,Leu^26,Lys^27,28]-VIP cyclo (Lys^21 →Asp^25)] (Ac-HADAVFTENYTKLRKQ[Nle]AAKKYLNDLKK-NH2; lactam 21-25)
- Bronchodilator activity of VIP analogs in guinea pigs, ED50 [1]: 0.14 μg
- pEC50 [2]: 9.11

SMILES: CCCC[C@H](NC(=O)[C@H](CCC(N)=O)NC(=O)[C@H](CCCCN)NC(=O)[C@H](CCCNC(=N)N)NC(=O)[C@H](CC(C)C)NC(=O)[C@H](CCCCN)NC(=O)[C@@H](NC(=O)[C@H](Cc1ccc(N)cc1)NC(=O)[C@H](CC(N)=O)NC(=O)[C@H](CC(=O)O)NC(=O)[C@@H](NC(=O)[C@H](Cc1ccccc1)NC(=O)[C@@H](NC(=O)[C@H](C)NC(=O)[C@H](CC(=O)O)NC(=O)[C@H](CO)NC(=O)[C@H](Cc1c[nH]cn1)NC(C)=O)C(C)C)[C@@H](C)O)[C@@H](C)O)C(=O)N[C@@H](C)C(=O)N[C@@H](C)C(=O)N[C@@H](CCCCN)C(=O)N[C@H]1CCCCNC(=O)C[C@@H](C(=O)N[C@H](C(=O)N[C@@H](CC(C)C)C(=O)N[C@H](C(N)=O)[C@@H](C)O)C(C)C)NC(=O)[C@H](CC(N)=O)NC(=O)[C@H](CC(C)C)NC(=O)[C@H](Cc2ccc(O)cc2)NC1=O [SEQ ID NO:54, Ac-[p-NH2 -Phe^10,Lys^12,Nle^17,Ala^19,Asp^25,Val^26,Thr^28]-VIP cyclo (Lys^21 →Asp^25)] (Ac-HSDAVFTDN[Phe(4-NH2)]TKLRKQ[Nle]AAKKYLNDVLT-NH2; lactam 21-25)
- Bronchodilator activity of VIP analogs in guinea pigs, ED50 [1]: 0.35 μg
- pEC50 [2]: 9.02

SMILES: CCCC[C@H](NC(=O)[C@H](CCC(N)=O)NC(=O)[C@H](CCCCN)NC(=O)[C@H](CCCNC(=N)N)NC(=O)[C@H](CC(C)C)NC(=O)[C@H](CCCCN)NC(=O)[C@@H](NC(=O)[C@H](Cc1ccc(O)cc1)NC(=O)[C@H](CC(N)=O)NC(=O)[C@H](CC(=O)O)NC(=O)[C@@H](NC(=O)[C@H](Cc1ccccc1)NC(=O)[C@@H](NC(=O)[C@H](C)NC(=O)[C@H](CC(=O)O)NC(=O)[C@H](CO)NC(=O)[C@H](Cc1c[nH]cn1)NC(C)=O)C(C)C)[C@@H](C)O)[C@@H](C)O)C(=O)N[C@@H](C)C(=O)N[C@@H](C)C(=O)N[C@@H](CCCCN)C(=O)N[C@H]1CCCCNC(=O)C[C@@H](C(=O)N[C@H](C(=O)N[C@@H](CC(C)C)C(=O)N[C@H](C(N)=O)[C@@H](C)O)C(C)C)NC(=O)[C@H](CC(N)=O)NC(=O)[C@H](CC(C)C)NC(=O)[C@H](Cc2ccc(O)c(OC)c2)NC1=O [SEQ ID NO:55, Ac-[Lys^12,Nle^17,Ala^19,m-OCH3 -Tyr^22,Asp^25,Val^26,Thr^28]-VIP cyclo (Lys^21 →Asp^25)] (Ac-HSDAVFTDNYTKLRKQ[Nle]AAKK[Tyr(3-OMe)]LNDVLT-NH2; lactam 21-25)
- Bronchodilator activity of VIP analogs in guinea pigs, ED50 [1]: 0.14 μg
- pEC50 [2]: 9.51

SMILES: CCCC[C@H](NC(=O)[C@H](CCC(N)=O)NC(=O)[C@H](CCCCN)NC(=O)[C@H](CCCNC(=N)N)NC(=O)[C@H](CC(C)C)NC(=O)[C@H](CCCCN)NC(=O)[C@@H](NC(=O)[C@H](Cc1ccc(O)cc1)NC(=O)[C@H](CC(N)=O)NC(=O)[C@H](CC(=O)O)NC(=O)[C@@H](NC(=O)[C@H](Cc1ccccc1)NC(=O)[C@@H](NC(=O)[C@H](C)NC(=O)[C@H](CC(=O)O)NC(=O)[C@H](CO)NC(=O)[C@H](Cc1c[nH]cn1)NC(C)=O)C(C)C)[C@@H](C)O)[C@@H](C)O)C(=O)N[C@@H](C)C(=O)N[C@@H](C)C(=O)N[C@@H](CCCCN)C(=O)N[C@H]1CCCCNC(=O)C[C@@H](C(=O)N[C@H](C(=O)N[C@@H](CC(C)C)C(=O)N[C@H](C(N)=O)[C@@H](C)O)C(C)C)NC(=O)[C@H](CC(N)=O)NC(=O)[C@H](CC(C)C)NC(=O)[C@H](Cc2ccc(O)c(F)c2)NC1=O [SEQ ID NO:56, Ac-[Lys^12,Nle^17,Ala^19,m-F-L-Tyr^22,Asp^25,Val^26,Thr^28]-VIP cyclo (Lys^21 →Asp^25)] (Ac-HSDAVFTDNYTKLRKQ[Nle]AAKK[Tyr(3-F)]LNDVLT-NH2; lactam 21-25)
- Bronchodilator activity of VIP analogs in guinea pigs, ED50 [1]: 7.2 μg
- pEC50 [2]: 9.28

SMILES: CCCC[C@H](NC(=O)[C@H](CCC(N)=O)NC(=O)[C@H](CCCCN)NC(=O)[C@H](CCCNC(=N)N)NC(=O)[C@H](CC(C)C)NC(=O)[C@H](CCCCN)NC(=O)[C@@H](NC(=O)[C@H](Cc1ccc(O)cc1)NC(=O)[C@H](CC(N)=O)NC(=O)[C@H](CCC(=O)O)NC(=O)[C@@H](NC(=O)[C@H](Cc1ccccc1)NC(=O)[C@@H](NC(=O)[C@H](C)NC(=O)[C@H](CC(=O)O)NC(=O)[C@H](CO)NC(=O)[C@H](Cc1c[nH]cn1)NC(C)=O)C(C)C)[C@@H](C)O)[C@@H](C)O)C(=O)N[C@@H](C)C(=O)N[C@@H](C)C(=O)N[C@@H](CCCCN)C(=O)N[C@H]1CCCCNC(=O)C[C@@H](C(=O)N[C@@H](CC(C)C)C(=O)N[C@@H](CCCCN)C(=O)N[C@@H](CCCCN)C(N)=O)NC(=O)[C@H](CC(N)=O)NC(=O)[C@H](CC(C)C)NC(=O)[C@H](Cc2ccc(O)c(OC)c2)NC1=O [SEQ ID NO:57, Ac-[Glu^8,Lys^12,Nle^17,Ala^19,m-OCH3 -Tyr^22,Asp^25,Leu^26,Lys^27,28]-VIP cyclo (Lys^21 →Asp^25)] (Ac-HSDAVFTENYTKLRKQ[Nle]AAKK[Tyr(3-OMe)]LNDLKK-NH2; lactam 21-25)
- Bronchodilator activity of VIP analogs in guinea pigs, ED50 [1]: 0.019 μg
- pEC50 [2]: 9.54

SMILES: CCCC[C@H](NC(=O)[C@H](CCC(N)=O)NC(=O)[C@H](CCCCN)NC(=O)[C@H](CCCNC(=N)N)NC(=O)[C@H](CC(C)C)NC(=O)[C@H](CCCCN)NC(=O)[C@@H](NC(=O)[C@H](Cc1ccc(O)cc1)NC(=O)[C@H](CC(N)=O)NC(=O)[C@H](CCC(=O)O)NC(=O)[C@@H](NC(=O)[C@H](Cc1ccccc1)NC(=O)[C@@H](NC(=O)[C@H](C)NC(=O)[C@H](CC(=O)O)NC(=O)[C@H](CO)NC(=O)[C@H](Cc1c[nH]cn1)NC(C)=O)C(C)C)[C@@H](C)O)[C@@H](C)O)C(=O)N[C@@H](C)C(=O)N[C@@H](C)C(=O)N[C@@H](CCCCN)C(=O)N[C@H]1CCCCNC(=O)C[C@@H](C(=O)N[C@@H](CC(C)C)C(=O)N[C@@H](CCCCN)C(=O)N[C@@H](CCCCN)C(N)=O)NC(=O)[C@H](CC(N)=O)NC(=O)[C@H](CC(C)C)NC(=O)[C@H](Cc2ccc(O)c(F)c2)NC1=O [SEQ ID NO:58, Ac-[Glu^8,Lys^12,Nle^17,Ala^19,m-F-L-Tyr^22,Asp^25,Leu^26,Lys^27,28]-VIP cyclo (Lys^21 →Asp^25)] (Ac-HSDAVFTENYTKLRKQ[Nle]AAKK[Tyr(3-F)]LNDLKK-NH2; lactam 21-25)
- Bronchodilator activity of VIP analogs in guinea pigs, ED50 [1]: 0.03 μg
- pEC50 [2]: 9.51

— patent publication US5677419A, “Cyclic vasoactive peptide analogs” (Hoffmann-La Roche Inc., priority 1994, dated 1997)
